{"source": "ChEMBL document CHEMBL1151300", "about": "“Studies on Aristolochia III. Isolation and biological evaluation of constituents of Aristolochia indica roots for fertility-regulating activity” (J Nat Prod, 1984)", "key": {"Mus musculus [1]": {"tested_on": "Mus musculus", "experiment": "Antifertility effect in CD1 mouse assessed as number of pregnant animals at 100 mg/kg, po administered postcoitally for 6 days", "assay_type": "functional, organism-based", "set-up": "dose 100 mg/kg"}, "Rattus norvegicus [2]": {"tested_on": "Rattus norvegicus", "experiment": "Antifertility effect in Sprague-Dawley rat assessed as number of pregnant animals at 10 mg/kg administered postcoitally for 1 to 10 days", "assay_type": "functional, organism-based", "set-up": "dose 10 mg/kg"}, "Rattus norvegicus [3]": {"tested_on": "Rattus norvegicus", "experiment": "Antifertility effect in Sprague-Dawley rat assessed as number of pregnant animals at 40 mg/kg, po administered postcoitally for 1 to 10 days", "assay_type": "functional, organism-based", "set-up": "dose 40 mg/kg"}, "Rattus norvegicus [4]": {"tested_on": "Rattus norvegicus", "experiment": "Toxicity in Sprague-Dawley rat at 40 mg/kg", "assay_type": "organism-based", "set-up": "dose 40 mg/kg", "conditions": "in vivo"}, "Syrian golden hamster": {"tested_on": "Syrian golden hamster", "experiment": "Toxicity in golden syrian hamster at 25 mg/kg", "assay_type": "organism-based, Mesocricetus auratus", "set-up": "dose 25 mg/kg", "conditions": "in vivo"}, "Rattus norvegicus [5]": {"tested_on": "Rattus norvegicus", "experiment": "Antifertility effect in Sprague-Dawley rat assessed as number of pregnant animals at 58 mg/kg, po administered postcoitally for 1 to 6 days", "assay_type": "functional, organism-based", "set-up": "dose 58 mg/kg"}, "Rattus norvegicus [6]": {"tested_on": "Rattus norvegicus", "experiment": "Antifertility effect in Sprague-Dawley rat assessed as number of pregnant animals at 2 mg/kg administered postcoitally for 1 to 10 days", "assay_type": "functional, organism-based", "set-up": "dose 2 mg/kg"}, "Rattus norvegicus [7]": {"tested_on": "Rattus norvegicus", "experiment": "Antifertility effect in Sprague-Dawley rat assessed as number of pregnant animals at 40 mg/kg, po administered postcoitally for 1 to 6 days", "assay_type": "functional, organism-based", "set-up": "dose 40 mg/kg"}, "Mus musculus [8]": {"tested_on": "Mus musculus", "experiment": "Antifertility effect in CD1 mouse assessed as number of pregnant animals at 50 mg/kg, po administered postcoitally for 6 days", "assay_type": "functional, organism-based", "set-up": "dose 50 mg/kg"}}, "note": "Activity calls are given as the source filed them. No cut-off for these calls is given here."}
{"smiles": "C[C@@H]1CCC[C@]23C[C@@H](CC[C@@]12C)[C@@](C)(O)C3", "values": [{"measurement": "Activity", "setting": "Mus musculus [1]", "result": "inactive"}]}
{"smiles": "COc1cccc2c1cc([N+](=O)[O-])c1c(C(=O)O)cc3c(c12)OCO3", "note": "[ARISTOLOCHIC ACID]", "values": [{"measurement": "Activity", "setting": "Rattus norvegicus [2]", "result": "inactive"}, {"measurement": "Activity", "setting": "Rattus norvegicus [3]", "result": "Active"}, {"measurement": "Activity", "setting": "Rattus norvegicus [4]", "result": "Active"}, {"measurement": "Activity", "setting": "Syrian golden hamster", "result": "Active"}]}
{"smiles": "O=C1OC[C@H](Cc2ccc3c(c2)OCO3)/C1=C\\c1ccc2c(c1)OCO2", "values": [{"measurement": "Activity", "setting": "Rattus norvegicus [5]", "result": "inactive"}]}
{"smiles": "COc1cccc2c1ccc1c(C(=O)O)cc3c(c12)OCO3", "values": [{"measurement": "Activity", "setting": "Rattus norvegicus [6]", "result": "inactive"}, {"measurement": "Activity", "setting": "Rattus norvegicus [7]", "result": "inactive"}]}
{"smiles": "COC(=O)c1cc2c(c3c1ccc1c(OC)cccc13)OCO2", "values": [{"measurement": "Activity", "setting": "Mus musculus [8]", "result": "inactive"}]}
